# Patent US20010031275A1, “Sesamol inhibitor of delta-5-desaturase activity and uses therefor” (priority 1998, published 2001)
# “And” between values parts separate entries of the source, which are not always exact repeats. Identical values can stand only once. “Also recorded” adds a separate entry of the source. Marks after values point to notes of the source that are not given here.
# Legend:
# [1] = tested on: PGE2, IL-10, IL-6 and TNF-α; details: fed mice, cited from earlier work
# Δ-5 desaturase enzyme = details: Shimizu et al., Lipids 26:512-516 (1991); cited from earlier work
# [2] = tested on: IL-6, IL-10, IL-12, TNF-α and PGE2; test: Synthetic sesamol diet in endotoxic mice: plasma cytokines and PGE2 after LPS challenge; type: in vivo, Balb/c mice; details: 5% SO + 0.25% synthetic sesamol diet, three weeks, 50 μg/mouse LPS for 90 minutes or three hours
# Source text: Proinflammatory mediators play an important role during endotoxic shock. As described herein, naturally occurring sesamol inhibits Δ-5 desaturase activity, and also decreases the production of prostaglandin (PG)E2. No such scientific data are available for the synthetic, pure form of sesamol. Therefore, the effects of consuming synthetic sesamol on proinflammatory immune responses during septic shock were studied. Female Balb/c mice were fed diets supplemented with 5% safflower oil (SO) in the absence or presence of 0.25% synthetic sesamol for three weeks. After a challenge with 50 μg/mouse LPS for 90 minutes or three hours, the plasma levels (pg/ml) of interleukin (IL)-6, IL-10, IL-12, tumor necrosis factor (TNF)-α and PGE2 were determined.
# [3] = tested on: Δ-5 desaturation of ω6 fatty acids; test: Fatty acid composition of liver membrane phospholipids from mice fed sesamol-supplemented safflower oil diet; type: in vivo, Balb/c mice; details: 2 weeks; for DGLA (20:3ω6): control 1.4 ± 0.1; for Docosapentaenoic acid (22:5ω6): control 2.5 ± 0.4; for Δ-5 desaturation (20:4ω6/20:3): ratio Arachidonic acid/Dihomo-γ-linolenic acid, liver phospholipids, SO + 1% sesamol diet, control 18.0 ± 1.7
# Protocol: The phospholipid fatty acid composition of the livers were determined, and the data represent mean mole percents of the total fatty acids (±s.d.). The levels of significance between the groups were determined using an unpaired student's t-test (p,0.05).
# […] They were allowed free access to drinking water and the experimental diets were fed at dusk, daily, between 4-5 PM. The weights of the body, and of the liver and spleen were determined on days 4, 7 and 14.
# (§1) Diets: The AIN-76A fat-free powder along with 0.05% t-butyl hydroxy toluene, an antioxidant, was mixed with 5 wt % (10% Kcal) of safflower oil (Oilseeds International Ltd., Fresno, Calif.), partitioned into daily rations packaged in separate whirl-pack bags, flushed with N2, and stored at 4° C. Where indicated, these diets were supplemented with 1 wt % sesamol (Aldrich Chemical Company Inc. Milwaukee, Wis.).
# Fatty acid analysis: Liver tissues were homogenized and extracted with a mixture of chloroform:methanol(2:1 v/v) containing 0.01% t-butylated hydroxytoluene as an antioxidant. The solvent fraction was isolated and evaporated to dryness under N2 and reconstituted in chloroform. The total phospholipids were separated by thin-layer chromatography on silica gel-H plates (Analtech Inc., Newark, Del.), and the fatty acid methyl esters were derived (Palombo et al., Lipids 29: 643-649 (1994)) and analyzed on a fused silica capillary column (100 m, 0.25 mm ID, 0.20 μm thickness; SP™-2560, Supelco Inc., Bellefonte, Pa.) using a gas chromatograph (5890 Series II) equipped with a mass selective detector (5971, Hewlett-Packard). The results were expressed as relative percent of identified fatty acids on a molar basis, using heptadecaenoic acid (17:0) as an internal standard.
# The changes in the fatty acid composition (mean±s.d; mol. %) were determined in the liver membrane phospholipids from mice fed both the SO diets for 2 weeks (Table 1). […] Similar data were obtained in mice fed for as short as 4 days (data not shown).
# [4] = tested on: TNF-α, IL-6, IL-10 and IL-12; test: Endotoxin-induced in vivo production of cytokines (plasma ELISA) in mice fed sesamol-supplemented SO diet; design: species or system Balb/c mice; details: SO + 1% sesamol diet, mean ± s.e.; for Tumor Necrosis Factor (TNF)-α: plasma at 1 hour following LPS, SO alone 3,042 ± 428; for Interleukin (IL)-6 / IL-10 / IL-12: plasma at 3 hours following LPS; for Interleukin (IL)-6: SO alone 143 ± 22; for IL-10: SO alone 262 ± 15; for IL-12: SO alone 6,355 ± 482
# Protocol: Data represent the levels of […] (means±s.e.) in plasma samples obtained at 1 hour for TNF-α, and at 3 hours for IL-6, IL-10, and IL-12 following LPS exposure. The levels of significance in the differences between the two groups were determined using Dunnett Multiple Comparison test.
# as §1
# The plasma levels of TNF-α, IL-6, IL-10 and IL-12 were determined according to the manufacturer's instructions using enzyme-linked immunosorbent assay kits (Biosource International, Camarrilo, Calif.).
# [5] = Weights of body, liver and spleen of mice fed sesamol-supplemented diets; type: in vivo, Balb/c mice
# Protocol: Animals: Six 8-week old, inbred, female Balb/c mice (Taconic Farms) were housed in our animal facility with a 12 hour day and 12 hour night cycle. They were allowed free access to drinking water and the experimental diets were fed at dusk, daily, between 4-5 PM. The weights of the body, and of the liver and spleen were determined on days 4, 7 and 14.
# [6] = liver membrane phospholipids, 5 wt % SO + 1% sesamol diet, mean ± s.d., n=8
# [7] = liver membrane phospholipids, 5 wt % SO + 1% sesamol diet, mean ± s.d., n=8, listed as SO + SESAMOL
# [8] = mice fed sesamol-supplemented diets vs SO diets
smiles,measurement,setting,value
c1cc2c(cc1[C@H]1OC[C@H]3[C@@H]1CO[C@@H]3c1ccc3c(c1)OCO3)OCO2 [sesamin],LPS-induced production of IL-6,[1]; Chavali et al. 1997,lower
same,LPS-induced production of IL-10,[1]; Chavali et al. 1997,lower
same,LPS-induced production of PGE2,[1]; Chavali et al. 1997,lower
same,LPS-induced production of TNF-α,[1]; Chavali et al.,elevated; also recorded: higher
same,inhibition of the activity of Δ-5 desaturase enzyme in vitro,Δ-5 desaturase enzyme,inhibit
Oc1cc2c(cc1[C@H]1OC[C@H]3[C@@H]1CO[C@@H]3c1ccc3c(c1)OCO3)OCO2 [sesaminol],inhibition of the activity of Δ-5 desaturase enzyme in vitro,Δ-5 desaturase enzyme,inhibit
"Oc1ccc2c(c1)OCO2 [sesamol, 3,4-methylenedioxyphenol]",IL-10,[2]; SO alone 314 ± 37,significantly higher
same,IL-10,"[2]; SO alone 314 ± 37, listed as SO + Sesamol",490 ± 35 pg/mL
same,IL-6,[2]; SO alone 418 ± 51,did not differ
same,IL-6,"[2]; SO alone 418 ± 51, listed as SO + Sesamol",360 ± 32 pg/mL
same,PGE2,[2]; SO alone 595 ± 68,markedly lower
same,PGE2,"[2]; SO alone 595 ± 68, listed as SO + Sesamol",265 ± 39 pg/mL
same,TFN-α,"[2]; SO alone 9,497 ± 1425",markedly lower
same,TFN-α,"[2]; SO alone 9,497 ± 1425, listed as SO + Sesamol","4,503 pg/ml"
same,IL-12,"[2]; SO alone 11,165 ± 549",markedly lower
same,IL-12,"[2]; SO alone 11,165 ± 549, listed as SO + Sesamol","8,969 pg/ml"
same,Arachidonic acid (20:4ω6),[3]; [6],unchanged
same,Docosahexaenoic acid (22:6ω3),[3]; [6],9.5 ± 0.4 mole percents
same,Oleic acid (18:1ω9),[3]; [6],8.2 ± 1.1 mole percents
same,Palmitic acid (16:0),[3]; [6],19.5 ± 1.4 mole percents
same,Stearic acid (18:0),[3]; [6],19.2 ± 1.7 mole percents
same,Vaccenic acid (18:1ω7),[3]; [6],2.6 ± 0.4 mole percents
same,DGLA (20:3ω6),[3]; [6],1.6±0.1 mole percents and 1.6±1 mole percents
same,DGLA (20:3ω6),[3]; [7],1.6 ± 0.1^a mole percents
same,Docosapentaenoic acid (22:5ω6),[3]; [6],1.4±0.1 mole percents
same,Docosapentaenoic acid (22:5ω6),[3]; [7],1.4 ± 0.1^a mole percents
same,Arachidonic acid (20:4ω6),[3]; [7],24.9 ± 0.9 mole percents
same,Δ-5 desaturation (20:4ω6/20:3),[3],15.6±1.5
same,Δ-5 desaturation (20:4ω6/20:3),[3]; listed as SO + SESAMOL,15.6 ± 1.5^a
same,inhibition of the activity of Δ-5 desaturase enzyme in vitro,Δ-5 desaturase enzyme,does not inhibit
same,Tumor Necrosis Factor (TNF)-α,[4],not elevated; also recorded: unaffected; also recorded: did not differ markedly; also recorded: did not differ significantly
same,Tumor Necrosis Factor (TNF)-α,[4]; listed as SO + SESAMOL,"2,931 ± 461 pg/ml"
same,Interleukin (IL)-6,[4],63 ± 11 ng/mL
same,Interleukin (IL)-6,[4]; listed as SO + SESAMOL,63 ± 11 ng/mL
same,IL-10,[4],unaffected; also recorded: did not differ markedly; also recorded: did not differ significantly
same,IL-10,[4]; listed as SO + SESAMOL,236 ± 20 pg/mL
same,IL-12,[4],did not differ markedly
same,IL-12,[4]; listed as SO + SESAMOL,"6,620 ± 646 pg/ml"
same,weights of body,[5]; [8],not significantly different
same,weights of livers,[5]; [8],unaffected; also recorded: not significantly different
same,weights of the spleen,[5]; [8],not significantly different
same,percent gain in body weights,[5]; sesamol-supplemented vs SO diet group,almost identical
c1cc2c(cc1O[C@H]1OC[C@H]3[C@@H]1CO[C@@H]3c1ccc3c(c1)OCO3)OCO2 [sesamolin],inhibition of the activity of Δ-5 desaturase enzyme in vitro,Δ-5 desaturase enzyme,inhibit
